The values below come from patent EP4799637A1, “NASAL ADMINISTRATION COMPOSITION CONTAINING GLP-1 RECEPTOR AGONIST, AND PREPARATION METHOD THEREFOR AND USE THEREOF” (Zhongshan Wanhan Pharmaceutical Co., Ltd., priority 2023, dated 2025).

The nature of series [1]: parallel artificial membrane permeability assay (PAMPA) of semaglutide formulations with permeation promoters. The format is in vitro ADME. The conditions noted are these: Skin PAMPA, permeation promoters at the same concentration of 0.25% (w/v%). The protocol: 1.1. Test objective: to investigate the differences in in-vitro permeability of semaglutide having a concentration of 10 mM in pH7.4 […] buffer by using the PAMPA method after the addition of different types and proportions of permeation promoters. An appropriate amount of 10 mM semaglutide mother liquor was weighed and placed in a liquid phase injection vial, and different permeation promoters were weighed and added correspondingly according to types and proportions listed in Table 1; a magnetic stirrer was added; the magnetic stirrer was turned on to adjust a rotation speed to 650 rpm; and the temperature of the magnetic stirrer was kept at 37°C, followed by stirring for later use. Table 1 • Donor wells solutions were solutions of Formulations 1-20; • An acceptor wells solution was pH 7.4 Prisma HT buffer. • 1) PAMPA membrane hydration: a Hydration Solution (Pion) was prepared (used at room temperature); donor wells of a PAMPA plate were carefully removed; 200 μl of Hydration Solution was added to each well, and whether each empty surface forms a curved surface due to surface tension was observed; and acceptor wells of the PAMPA plate were covered carefully, while air bubbles were avoided on contact surfaces. The Hydration Solution was kept moist and hydrated overnight, and the hydrated membrane will appear translucent or have white spots. […]
For orientation: PAMPA measures passive passage across an artificial lipid membrane.

Series [2] can be described thus: Compatibility/stability study: HPLC main peak purity and impurities after storage in the dark at 40°C and 50°C. The format is physicochemical. The following applies: result in words. On the procedure: The changes in semaglutide content and impurities in a semaglutide solution, semaglutide+different permeation promoter solutions, and semaglutide+different bacteriostatic agent solutions were determined under HPLC conditions in Example 1 after being stored in the dark for 10 days (10 D) at 40°C and 50°C, and the results were shown in Table 7.
The definitions of the hydrophilic impurities 1 and 2 and the hydrophobic impurity in Table 7 were shown in HPLC chromatograms of Formulations C1 to C4 shown in FIGS. 1-4 determined at 50°C on Day 10.
As a control, main peak intensities of compositions J and K in CN116942612A at 50°C on Day 5 were determined using the same method, both of which were below 95%.

`CCCCCCCCCCCCO[C@@H]1O[C@H](CO)[C@@H](O[C@H]2O[C@H](CO)[C@@H](O)[C@H](O)[C@H]2O)[C@H](O)[C@H]1O` [dodecyl-β-D-maltoside]: in series [1], the permeation promoting effect entry is recorded as “better permeation promoting effects”. Consider `CCCCCCCCCCCC(=O)OCCOCCOCCOCCOCCOCCOCCOCCOCCOCCOCCOCCOCCOCCOCCOCCOCCOCCOCCOCCOCC(OCCOCCOCCOCCOCCOCCOCCOCCOCCOCCOCCOCCOCCOCCOCCOCCOCCOCCOCCOCCO)C1OCC(OCCOCCOCCOCCOCCOCCOCCOCCOCCOCCOCCOCCOCCOCCOCCOCCOCCOCCOCCOCCO)C1OCCOCCOCCOCCOCCOCCOCCOCCOCCOCCOCCOCCOCCOCCOCCOCCOCCOCCOCCOCCO` (stereo not shown) [polysorbate-20], for which the permeation promoting effect result in series [1] was “better permeation promoting effects”. For benzalkonium chloride, the “protective effect on semaglutide (inhibited degradation)” value in series [2] was “protective effect on semaglutide”.

In the case of polyoxyethylene (8) dodecyl ether, in series [1], the permeation promoting effect result is on record as “better permeation promoting effects”.
